Data taken from patent publication US20220317115A1, “3D ORGANOIDS FOR PERSONALIZED ORAL CANCER THERAPY” (THE TRUSTEES OF COLUMBIA UNIVERSITY IN THE CITY OF NEW YOURK, priority 2019, published 2022).
“Also recorded” adds a separate entry of the source. Like-named read-outs stand apart in the source and are kept apart here.

Tests used:
[1] = test system: 4NQO-induced tumor organoids (Aldh2*2 vs Aldh2*1); experiment: CellTiter-Glo 3D cell viability assay of 4NQO-induced tumor organoids with Aldh2 SNP genotypes; format: cell-based, mice; settings: for Response of Aldh2*2 (Aldh2 mutant) tumor organoids to chemotherapy agent compared with Aldh2*1 (wild-type) tumor organoids: treatment for 3 days, cisplatin 80 μM, 5FU data not shown
Protocol: 4NQO-induced tumor organoids with indicated Aldh2 SNP genotypes were analyzed by H&E staining for cellular abnormality in FIG. 5A and by […] CellTiter-Glo® 3D cell viability assays, following treatment for 3 days with cisplatin (80 μM) along with or without 10 μM Alda-1, an Aldh2 activator in FIG. 5B. *, p<0.01 vs. Aldh21; ns, not significant (n=6).
Aldh2*2 is a common single nucleotide polymorphism (SNP) strongly associated with OSCC. To evaluate the role of Aldh2*2 in 4NQO-induced neoplastic cells in 3D organoids, Aldh2*2 mice expressing mutant Aldh2 protein (Aldh2^E487K) were compared with wild-type Aldh2*1 (control) mice. 3D organoids were analyzed from tumors detected in mice sacrificed at 26 weeks from the start of 4NQO treatment. […] Thus, individuals with Aldh2*2 SNP may respond to chemotherapy better despite its strong association with a risk of OSCC tumor development. It was hypothesized that pharmacological Aldh2 inhibition by Disulfiram (Antabuse, used a treatment of chronic alcoholism) augments the chemotherapy effects in OSCC in individuals with Aldh2*1. Thus, patient-derived 3D organoids may serve as a platform for new translational applications in personalized medicine for therapy of OSCC and potentially other squamous cell carcinomas.
Oral 3D organoids (FIG. 6): 3D organoids will be generated according to the published protocols (Kasagi et al. 2018; Natsuizaka et al. 2017; Whelan et al. 2017). In 24-well plates, 2,000 cells are seeded in Matrigel (50 μl/well). Organoids grow within 7-10 days to form 50-100 μm spherical structures (100% success, n=34 for human normal biopsies) (Kasagi et al. 2018). For quality control purposes, an OSCC cell line will be used (Kijima et al. 2019). Time-lapse analysis of growing organoids will be done under light microscopy to determine their average size and morphology. organoid formation rate (OFR; the percentage of the number of organoids formed at day 10 per total number of cells seeded at day 0) will be determined. Organoids will then be processed for DNA, RNA and flow cytometry, and histology. […]

EAC PDO = experiment: IC50 from drug-treated EAC PDO, mean organoid size by Celigo Imaging Cytometer; format: cell-based, human; settings: 72 h-exposure, R squares 0.5874 (Cisplatin) and 0.8652 (Paclitaxel), read-out: IC50 (organoid size normalized by vehicle-treated control as 100%)
Protocol: EAC PDO size were evaluated by Celigo Imaging Cytometer measuring the mean organoid size following 72 h-exposure to Cisplatin and Paclitaxel at indicated final concentrations. Organoid size was normalized by vehicle-treated control as 100%.
To evaluate organoid growth, 3D organoid structures were monitored during culture, and their size is documented by a conventional phase-contrast inverted microscope or highthroughput cell imaging instruments (e.g., Celigo Image Cytometer, Nexcelom Bioscience) with the capacity of automated multi-well rapid imaging and quantitative analysis of organoid size, number and structure.
• 1. Grow organoids in 24-well or 96-well plates (Basic Protocols 1 and 2). Use at least three (3) wells per condition as biological replicates. • 2. Acquire phase-contrast images (FIGS. 37A-37B) manually via a conventional microscopy with a camera. Use ImageJ software to measure the diameter of at least 5 organoids per well. Alternatively, Celigo imaging cytometer can not only acquire phase-contrast images but calculate mean organoid area for all organoids imaged. Such assays can be performed in conjunction with drug treatment (FIG. 38) (Basic Protocol 6). • 3. Repeat step 2 every other day. • 4. Generate growth curves by plotting organoid diameter or area at each time point.
• 1. Remove the spent culture medium by aspiration. • 2. […]

esophageal 3D organoids = experiment: Modeling reactive epithelium in esophageal organoids with IL-13; format: cell-based, human; settings: IL-13 stimulation (10 ng/ml in protocol), compared to untreated organoids
Source text: Reactive changes in esophageal epithelium are induced by multiple soluble factors secreted by immune cells and fibroblasts. The function of these factors in disease development can be modeled and evaluated in esophageal organoids. Here we provide an example of such an experiment by treating normal esophageal organoids with interleukin 13 (IL-13) to model reactive changes induced in esophageal epithelium by eosinophils; however, any bioactive compounds (cytokines, antibodies, small molecule inhibitors) can be utilized to model pathologic conditions and/or treatment strategies. Representative images of esophageal organoids treated with IL-13, as well as gene expression profiles of select EoE-relevant genes (Blanchard et al., 2007; Kasagi et al., 2019), can be found in FIGS. 35A-35B.
Additional Materials (see also Basic Protocol 1) • Interleukin 13 (IL-13; R&D Systems, cat. no. 213-ILB-005) • Reconstituted IL-13 (reconstitute lyophilized IL-13 to 100 μg/ml in PBS, aliquot, and store at −80° C.; avoid repeated freeze-thaw cycles) • Growing culture of esophageal organoids (see Basic Protocol 1) • 1. Remove spent medium. • 2. Dispense 500 μl KSFMC containing 10 ng/ml IL-13. • 3. Observe organoid growth under a phase-contrast microscope. • 4. Harvest organoids for histology and RNA isolation, as described in Basic Protocol 3. • 5. Evaluate changes in morphology and gene expression.

O=c1[nH]cc(F)c(=O)[nH]1 [5FU, 5-Fluorouracil]
Response of Aldh2*2 (Aldh2 mutant) tumor organoids to chemotherapy agent compared with Aldh2*1 (wild-type) tumor organoids [1]: better than Aldh2*1

O=C(NCc1ccc2c(c1)OCO2)c1c(Cl)cccc1Cl [Alda1]
Effect on cisplatin-mediated cytotoxicity in Aldh2*2 tumor 3D organoids ([1]; 10 μM Alda-1 with cisplatin 80 μM, 3 days): cisplatin-mediated cytotoxicity was reversed

N.N.[Cl][Pt][Cl] [Cisplatin]
Response of Aldh2*2 (Aldh2 mutant) tumor organoids to chemotherapy agent compared with Aldh2*1 (wild-type) tumor organoids [1]: better than Aldh2*1 | IC50 (EAC PDO): 7.1 µM

CC(=O)O[C@H]1C(=O)[C@@]2(C)[C@H]([C@H](OC(=O)c3ccccc3)[C@]3(O)C[C@H](OC(=O)[C@H](O)[C@@H](NC(=O)c4ccccc4)c4ccccc4)C(C)=C1C3(C)C)[C@]1(OC(C)=O)CO[C@@H]1C[C@@H]2O [Paclitaxel]
IC50 (EAC PDO; Homo sapiens): 2.3 µM

IL-13: eosinophilic esophagitis (EoE)-relevant cytokine, recombinant (R&D Systems)
Reactive epithelial change (basal cell hyperplasia) in organoids (esophageal 3D organoids): induces BCH-like changes; also recorded: Basal cell hyperplasia is evident
